{
  "source": "PubChem BioAssay AID330",
  "about": "(DTP/NCI, 2004)",
  "system": "P388 leukemia ip, CD2F1 mice, survival T/C",
  "assay": "NCI In Vivo Anticancer Drug Screen. Data for tumor model P388 Leukemia (intraperitoneal) in CD2F1 (CDF1) mice",
  "conditions": "endpoint: median survival time, higher = longer survival",
  "method_in_brief": "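Mice carrying the transplanted tumor received test compound or vehicle. Survival was recorded in each group, and the value is the treated-group measurement divided by that of the vehicle-treated control group.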",
  "note": "Where “and” joins values, the source holds several entries; their conditions need not be identical. Identical values can stand only once. Inconclusive results and toxic doses are left out.",
  "data": [
    {"smiles": "CCCCCCCCCCCCCCCC(=O)OCC1OC(n2ccc(N)nc2=O)C(O)C1O", "note": "(configuration not stated)", "values": [
      {"measurement": "T/C", "setting": "dose: 0.29 mg/kg/injection, schedule: Q01DX009 (ip), vehicle: saline with Tween-80", "value": "104 % of control"},
      {"measurement": "T/C", "setting": "dose: 0.44 mg/kg/injection, schedule: Q01DX009 (ip), vehicle: saline with Tween-80", "value": "104 % of control"},
      {"measurement": "T/C", "setting": "dose: 0.66 mg/kg/injection, schedule: Q01DX009 (ip), vehicle: saline with Tween-80", "value": "122 % of control"},
      {"measurement": "T/C", "setting": "dose: 0.88 mg/kg/injection, schedule: Q01DX009 (ip), vehicle: saline with Tween-80", "value": "152 % of control"},
      {"measurement": "T/C", "setting": "dose: 1.32 mg/kg/injection, schedule: Q01DX009 (ip), vehicle: saline with Tween-80", "value": "166 % of control"},
      {"measurement": "T/C", "setting": "dose: 2.0 mg/kg/injection, schedule: Q01DX009 (ip), vehicle: saline with Tween-80", "value": "185 % of control"},
      {"measurement": "T/C", "setting": "dose: 3.0 mg/kg/injection, schedule: Q01DX009 (ip), vehicle: saline with Tween-80", "value": "200 % of control"},
      {"measurement": "T/C", "setting": "dose: 3.13 mg/kg/injection, schedule: Q04DX003 (ip), vehicle: saline with Tween-80", "value": "163 % of control"},
      {"measurement": "T/C", "setting": "dose: 6.25 mg/kg/injection, schedule: Q04DX003 (ip), vehicle: saline with Tween-80", "value": "181 % of control and 195 % of control"},
      {"measurement": "T/C", "setting": "dose: 12.5 mg/kg/injection, schedule: Q04DX003 (ip), vehicle: saline sonified", "value": "204 % of control"},
      {"measurement": "T/C", "setting": "dose: 12.5 mg/kg/injection, schedule: Q04DX003 (ip), vehicle: saline with Tween-80", "value": "218 % of control and 222 % of control"},
      {"measurement": "T/C", "setting": "dose: 15.0 mg/kg/injection, schedule: Q01DX009 (ip), vehicle: saline with Tween-80", "value": "221 % of control and 345 % of control"},
      {"measurement": "T/C", "setting": "dose: 20.0 mg/kg/injection, schedule: Q01DX001 (ip), vehicle: saline with Tween-80", "value": "154 % of control"},
      {"measurement": "T/C", "setting": "dose: 20.0 mg/kg/injection, schedule: Q01DX009 (ip), vehicle: saline with Tween-80", "value": "228 % of control and 538 % of control and 548 % of control"},
      {"measurement": "T/C", "setting": "dose: 24.0 mg/kg/injection, schedule: Q01DX009 (ip), vehicle: saline with Tween-80", "value": "344 % of control"},
      {"measurement": "T/C", "setting": "dose: 25.0 mg/kg/injection, schedule: Q01DX009 (ip), vehicle: saline with Tween-80", "value": "170 % of control and 539 % of control"},
      {"measurement": "T/C", "setting": "dose: 25.0 mg/kg/injection, schedule: Q04DX003 (ip), vehicle: saline sonified", "value": "250 % of control"},
      {"measurement": "T/C", "setting": "dose: 25.0 mg/kg/injection, schedule: Q04DX003 (ip), vehicle: saline with Tween-80", "value": "254 % of control"},
      {"measurement": "T/C", "setting": "dose: 31.75 mg/kg/injection, schedule: Q04DX002 (ip), vehicle: Klucel (hydroxypropylcellulose) (HPC)", "value": "250 % of control and 256 % of control"},
      {"measurement": "T/C", "setting": "dose: 32.0 mg/kg/injection, schedule: Q04DX003 (ip), vehicle: saline with Tween-80", "value": "194 % of control and 264 % of control"},
      {"measurement": "T/C", "setting": "dose: 37.5 mg/kg/injection, schedule: Q01DX001 (ip), vehicle: saline with Tween-80", "value": "181 % of control"},
      {"measurement": "T/C", "setting": "dose: 40.0 mg/kg/injection, schedule: Q01DX001 (ip), vehicle: saline with Tween-80", "value": "204 % of control"},
      {"measurement": "T/C", "setting": "dose: 48.0 mg/kg/injection, schedule: Q04DX003 (ip), vehicle: saline with Tween-80", "value": "216 % of control and 350 % of control"},
      {"measurement": "T/C", "setting": "dose: 50.0 mg/kg/injection, schedule: Q01DX001 (ip), vehicle: Klucel (hydroxypropylcellulose) (HPC)", "value": "155 % of control"},
      {"measurement": "T/C", "setting": "dose: 50.0 mg/kg/injection, schedule: Q04DX003 (ip), vehicle: saline sonified", "value": "250 % of control"},
      {"measurement": "T/C", "setting": "dose: 60.0 mg/kg/injection, schedule: Q03DX003 (ip), vehicle: saline with Tween-80", "value": "536 % of control"},
      {"measurement": "T/C", "setting": "dose: 62.5 mg/kg/injection, schedule: Q04DX002 (ip), vehicle: Klucel (hydroxypropylcellulose) (HPC)", "value": "263 % of control and 275 % of control"},
      {"measurement": "T/C", "setting": "dose: 70.0 mg/kg/injection, schedule: Q03DX003 (ip), vehicle: saline with Tween-80", "value": "536 % of control"},
      {"measurement": "T/C", "setting": "dose: 72.0 mg/kg/injection, schedule: Q04DX003 (ip), vehicle: saline with Tween-80", "value": "213 % of control and 511 % of control"},
      {"measurement": "T/C", "setting": "dose: 75.0 mg/kg/injection, schedule: Q01DX001 (ip), vehicle: saline with Tween-80", "value": "181 % of control"},
      {"measurement": "T/C", "setting": "dose: 80.0 mg/kg/injection, schedule: Q03DX003 (ip), vehicle: saline with Tween-80", "value": "459 % of control"},
      {"measurement": "T/C", "setting": "dose: 90.0 mg/kg/injection, schedule: Q03DX003 (ip), vehicle: saline with Tween-80", "value": "378 % of control"},
      {"measurement": "T/C", "setting": "dose: 125.0 mg/kg/injection, schedule: Q04DX002 (ip), vehicle: Klucel (hydroxypropylcellulose) (HPC)", "value": "263 % of control and 275 % of control"}
    ]},
    {"smiles": "Cc1cc2nnnn2c2ccccc12", "values": [
      {"measurement": "T/C", "setting": "dose: 50.0 mg/kg/injection, schedule: Q01DX009 (ip), vehicle: saline", "value": "96 % of control"},
      {"measurement": "T/C", "setting": "dose: 100.0 mg/kg/injection, schedule: Q01DX009 (ip), vehicle: saline", "value": "99 % of control"},
      {"measurement": "T/C", "setting": "dose: 200.0 mg/kg/injection, schedule: Q01DX009 (ip), vehicle: saline", "value": "95 % of control"}
    ]},
    {"smiles": "C[C@]12CC[C@H](OC(=O)/C=C\\c3ccccc3N(CCCl)CCCl)CC1CC[C@@H]1C2CC[C@]2(C)NC(=O)CCC12", "note": "(some centres not stated)", "values": [
      {"measurement": "T/C", "setting": "dose: 100.0 mg/kg/injection, schedule: Q01DX001 (ip), vehicle: saline with Tween-80", "value": "105 % of control and 120 % of control"},
      {"measurement": "T/C", "setting": "dose: 200.0 mg/kg/injection, schedule: Q01DX001 (ip), vehicle: saline with Tween-80", "value": "118 % of control"}
    ]},
    {"smiles": "COC1C=CCCC1", "note": "(configuration not stated)", "values": [
      {"measurement": "T/C", "setting": "dose: 100.0 mg/kg/injection, schedule: Q01DX001 (ip), vehicle: Klucel (hydroxypropylcellulose) (HPC)", "value": "108 % of control"},
      {"measurement": "T/C", "setting": "dose: 200.0 mg/kg/injection, schedule: Q01DX001 (ip), vehicle: Klucel (hydroxypropylcellulose) (HPC)", "value": "117 % of control"},
      {"measurement": "T/C", "setting": "dose: 400.0 mg/kg/injection, schedule: Q01DX001 (ip), vehicle: Klucel (hydroxypropylcellulose) (HPC)", "value": "106 % of control"}
    ]},
    {"smiles": "Cc1ccc(S(=O)(=O)[n+]2ccccc2)cc1", "values": [
      {"measurement": "T/C", "setting": "dose: 100.0 mg/kg/injection, schedule: Q01DX001 (ip), vehicle: saline", "value": "104 % of control"},
      {"measurement": "T/C", "setting": "dose: 200.0 mg/kg/injection, schedule: Q01DX001 (ip), vehicle: saline", "value": "100 % of control"},
      {"measurement": "T/C", "setting": "dose: 400.0 mg/kg/injection, schedule: Q01DX001 (ip), vehicle: saline", "value": "100 % of control"}
    ]},
    {"smiles": "CN1CC(O)c2cc(N=NC(N)=O)c(O)cc21", "note": "(configuration not stated)", "values": [
      {"measurement": "T/C", "setting": "dose: 50.0 mg/kg/injection, schedule: Q01DX005 (ip), vehicle: Klucel (hydroxypropylcellulose) (HPC)", "value": "96 % of control"},
      {"measurement": "T/C", "setting": "dose: 100.0 mg/kg/injection, schedule: Q01DX005 (ip), vehicle: Klucel (hydroxypropylcellulose) (HPC)", "value": "91 % of control"},
      {"measurement": "T/C", "setting": "dose: 200.0 mg/kg/injection, schedule: Q01DX005 (ip), vehicle: Klucel (hydroxypropylcellulose) (HPC)", "value": "108 % of control"}
    ]}
  ]
}
